The record followed here is ChEMBL document CHEMBL5634101, “Discovery of NLRP3 inhibitors using machine learning: Identification of a hit compound to treat NLRP3 activation-driven diseases” (Eur J Med Chem, 2023).

The target of series [1] is T1, Interferon-inducible protein AIM2 (Mus musculus) (UniProt Q91VJ1).
T1 sequence (whole entry): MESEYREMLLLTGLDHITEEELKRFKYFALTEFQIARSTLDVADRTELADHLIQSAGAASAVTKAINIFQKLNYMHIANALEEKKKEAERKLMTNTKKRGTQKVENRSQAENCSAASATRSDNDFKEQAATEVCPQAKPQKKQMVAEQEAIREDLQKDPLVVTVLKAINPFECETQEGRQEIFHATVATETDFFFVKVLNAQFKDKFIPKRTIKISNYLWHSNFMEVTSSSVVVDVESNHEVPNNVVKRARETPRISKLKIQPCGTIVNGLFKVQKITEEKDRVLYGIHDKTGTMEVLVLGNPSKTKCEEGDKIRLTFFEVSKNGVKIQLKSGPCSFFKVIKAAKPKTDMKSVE
Kind of series: Inhibition of AIM2 inflammasome activation in C57 mouse BMDM cells assessed as reduction in caspase-1 maturation at 5 uM preincubated with LPS for 3 hrs followed by poly(dA:dT) stimulation for 4 hrs by Western blot analysis. The class given is cell-based.

Series [2] concerns the target NLR family CARD domain-containing protein 4 (Mus musculus) (UniProt Q3UP24). Kind of series: Inhibition of NLRC4 inflammasome activation in C57 mouse BMDM cells assessed as reduction in IL-1beta secretion at 5 uM preincubated with LPS for 3 hrs followed by Salmonella typhimurium stimulation for 2 hrs by Western blot analysis. The class given is cell-based. In general terms: Immunoblotting shows a protein as a band on a membrane.

Series [3] has the same target. Kind of series: Inhibition of NLRC4 inflammasome activation in C57 mouse BMDM cells assessed as reduction in caspase-1 maturation at 5 uM preincubated with LPS for 3 hrs followed by Salmonella typhimurium stimulation for 2 hrs by Western blot analysis. The class given is cell-based.
The target of series [4] is NACHT, LRR and PYD domains-containing protein 3 (Mus musculus) (UniProt Q8R4B8). Kind of series: Inhibition of NLRP3 inflammasome activation in C57 mouse BMDM cells assessed as reduction in IL-1beta secretion at 5 uM preincubated with LPS for 3 hrs followed by compound addition for 30 mins prior to ATP addition and measured after 30 mins by Western blot analysis. As to conditions: time 1.0 hrs. The class given is cell-based.

For series [5] the target is unchanged. Kind of series: Inhibition of NLRP3 inflammasome activation in C57 mouse BMDM cells assessed as reduction in caspase-1 maturation at 5 uM preincubated with LPS for 3 hrs followed by compound addition for 30 mins prior to ATP addition and measured after 30 mins by Western blot analysis. The class given is cell-based. The following applies: time 1.0 hrs.
Series [6] shares this target. Kind of series: Inhibition of NLRP3 inflammasome activation in C57 mouse BMDM cells assessed as reduction in IL-1beta secretion at 5 uM preincubated with LPS for 3 hrs followed by compound addition for 30 mins prior to MSU addition and measured after 4 hrs by Western blot analysis. The class given is cell-based. As to conditions: time 4.5 hrs.
Series [7] shares this target. Kind of series: Inhibition of NLRP3 inflammasome activation in C57 mouse BMDM cells assessed as reduction in caspase-1 maturation at 5 uM preincubated with LPS for 3 hrs followed by compound addition for 30 mins prior to MSU addition and measured after 4 hrs by Western blot analysis. The class given is cell-based. As to conditions: time 4.5 hrs.
The target is the same in series [8]. Kind of series: Inhibition of NLRP3 inflammasome assembly in C57 mouse BMDM cells assessed as reduction in ASC monomer at 2.5 to 10 uM preincubated with LPS for 3 hrs followed by compound addition for 30 mins prior to nigericin addition and measured after 30 mins by blotting analysis. The class given is cell-based. The following applies: dose 2.5-10 µM, time 1.0 hrs.

For series [9] the target is unchanged. The series is described as follows: Inhibition of NLRP3 inflammasome assembly in C57 mouse BMDM cells assessed as reduction in higher order complex cross-linking at 2.5 to 10 uM preincubated with LPS for 3 hrs followed by compound addition for 30 mins prior to nigericin addition and measured after 30 mins by ASC oligomerization based blotting analysis. The class given is cell-based. As to conditions: dose 2.5-10 µM, time 1.0 hrs.

Series [10] has the same target. Kind of series: Inhibition of NLRP3 inflammasome assembly in C57 mouse BMDM cells assessed as effect on NEK7 binding at 2.5 to 10 uM preincubated with LPS for 3 hrs followed by compound addition for 30 mins prior to nigericin addition and measured after 30 mins by immunoprecipitation. The class given is cell-based. The following applies: dose 2.5-10 µM, time 1.0 hrs.

The target is the same in series [11]. The series is described as follows: Inhibition of NLRP3 inflammasome assembly in C57 mouse BMDM cells assessed as effect on ASC binding at 2.5 to 10 uM preincubated with LPS for 3 hrs followed by compound addition for 30 mins prior to nigericin addition and measured after 30 mins by immunoprecipitation. The class given is cell-based. The following applies: dose 2.5-10 µM, time 1.0 hrs.

Series [12] in a line: Stability in human liver microsomes assessed as half-life at 1.5 uM measured upto 45 mins in presence of NADPH by LC-MS/MS analysis. The class given is ADME, Microsome. For orientation: Microsomes from liver hold many membrane-bound enzymes, among them those of drug oxidation.
The nature of series [13]: Stability in human liver microsomes assessed as intrinsic clearance at 1.5 uM measured upto 45 mins in presence of NADPH by LC-MS/MS analysis. The class given is ADME, Microsome. The following applies: read-out: CLH.
For series [14], the target named is NACHT, LRR and PYD domains-containing protein 3 (Homo sapiens, UniProt Q96P20). Kind of series: Binding affinity to CM5 chip immobilized NLRP3 (unknown origin) assessed as dissociation constant by SPR analysis. A general note: Surface plasmon resonance follows binding to a sensor surface in real time, without labels.
Series [15] deals with NACHT, LRR and PYD domains-containing protein 3 (Mus musculus) (UniProt Q8R4B8). The series is described as follows: Binding affinity to NLRP3 in mouse J774.A1 cells assessed as reduction in NLRP3 degradation incubated for 1 hrs at 48 to 81 degreeC by CETSA based Western blot analysis. The class given is cell-based.
Series [16] deals with Mus musculus. The series is described as follows: Anti-inflammatory activity in LPS-induced C57 sepsis mouse model assessed as reduction in serum IL-1beta level at 10 to 30 mg/kg, ip preadministered with compound for 30 mins followed by LPS stimulation and measured after 6 hrs by ELISA. The class given is functional, organism-based. The following applies: dose 10-30 mg/kg, time 6.5 hrs.

Series [17] deals with Mus musculus. Kind of series: Anti-inflammatory activity in LPS-induced C57 sepsis mouse model assessed as reduction in inflammatory infiltration in liver at 10 to 30 mg/kg, ip preadministered with compound for 30 mins followed by LPS stimulation and measured after 6 hrs by H&E staining based analysis. The following applies: dose 10-30 mg/kg, time 6.5 hrs. The class given is functional, organism-based.

Series [18] concerns Mus musculus. Kind of series: Anti-inflammatory activity in MSU-induced C57 mouse model of acute peritonitis assessed as reduction in IL-1beta expression preadministered intraperitoneally with compound for 3 days followed by MSU injection and measured after 6 hrs by ELISA. The class given is functional, organism-based. The following applies: dose 5-30 mg/kg, route ip, time 78.0 hrs.

The test system of series [19] is Mus musculus. The series is described as follows: Anti-inflammatory activity in MSU-induced C57 mouse model of gouty arthritis assessed as reduction in foot swelling at 10 to 30 mg/kg, ip preadministered with compound for 3 days followed by MSU injection and measured after 24 hrs. The following applies: dose 10-30 mg/kg, time 4.0 day. The class given is functional, organism-based.

For series [20], the system named is Mus musculus. Kind of series: Anti-inflammatory activity in MSU-induced C57 mouse model of gouty arthritis assessed as reduction in AUC of foot swelling at 30 mg/kg, ip preadministered with compound for 3 days followed by MSU injection and measured after 24 hrs. The class given is functional, organism-based. As to conditions: time 4.0 day.
The subject of series [21] is Mus musculus. Kind of series: Analgesic activity in MSU-induced C57 mouse model of gouty arthritis assessed as increase in pain threshold at 10 to 30 mg/kg, ip preadministered with compound for 3 days followed by MSU injection and measured after 24 hrs by von frey test. The following applies: dose 10-30 mg/kg, time 4.0 day. The class given is functional, organism-based.

Broadly, the half-life is how long it takes for the measured level to halve. In general, Kd refers to the concentration at which binding is half-saturated.

Calls of active or inactive are those of the source.

Chain of NACHT, LRR and PYD domains-containing protein 3 (Mus musculus) (Q8R4B8 whole entry, the tested form may be a part): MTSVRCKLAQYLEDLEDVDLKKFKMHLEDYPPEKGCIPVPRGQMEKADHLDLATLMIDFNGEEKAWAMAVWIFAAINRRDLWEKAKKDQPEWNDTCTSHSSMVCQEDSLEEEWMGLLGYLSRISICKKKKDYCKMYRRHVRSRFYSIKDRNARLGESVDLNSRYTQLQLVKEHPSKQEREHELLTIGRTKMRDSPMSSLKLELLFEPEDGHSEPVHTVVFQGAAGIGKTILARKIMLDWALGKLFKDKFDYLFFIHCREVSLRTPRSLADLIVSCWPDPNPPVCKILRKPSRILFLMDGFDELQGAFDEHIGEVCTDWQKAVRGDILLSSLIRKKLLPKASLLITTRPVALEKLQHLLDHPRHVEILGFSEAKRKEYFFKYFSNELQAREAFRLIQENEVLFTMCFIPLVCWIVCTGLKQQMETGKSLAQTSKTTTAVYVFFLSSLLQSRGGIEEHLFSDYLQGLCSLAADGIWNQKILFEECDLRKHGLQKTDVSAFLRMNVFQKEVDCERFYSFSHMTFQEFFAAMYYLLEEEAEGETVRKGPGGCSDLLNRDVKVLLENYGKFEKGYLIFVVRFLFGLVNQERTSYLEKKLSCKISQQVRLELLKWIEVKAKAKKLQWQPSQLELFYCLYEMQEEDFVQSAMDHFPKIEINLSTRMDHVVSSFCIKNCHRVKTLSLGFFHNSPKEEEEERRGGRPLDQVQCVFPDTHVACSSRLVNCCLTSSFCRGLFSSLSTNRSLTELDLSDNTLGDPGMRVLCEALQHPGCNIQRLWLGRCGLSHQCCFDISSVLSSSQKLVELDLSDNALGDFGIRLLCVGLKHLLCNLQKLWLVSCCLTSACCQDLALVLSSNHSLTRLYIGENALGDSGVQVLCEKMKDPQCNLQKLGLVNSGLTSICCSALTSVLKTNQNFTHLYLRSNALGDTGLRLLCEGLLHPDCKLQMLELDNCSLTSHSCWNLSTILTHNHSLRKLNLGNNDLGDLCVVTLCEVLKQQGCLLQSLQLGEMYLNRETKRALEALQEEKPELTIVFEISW
Chain of NLR family CARD domain-containing protein 4 (Mus musculus) (Q3UP24 whole entry, the tested form may be a part): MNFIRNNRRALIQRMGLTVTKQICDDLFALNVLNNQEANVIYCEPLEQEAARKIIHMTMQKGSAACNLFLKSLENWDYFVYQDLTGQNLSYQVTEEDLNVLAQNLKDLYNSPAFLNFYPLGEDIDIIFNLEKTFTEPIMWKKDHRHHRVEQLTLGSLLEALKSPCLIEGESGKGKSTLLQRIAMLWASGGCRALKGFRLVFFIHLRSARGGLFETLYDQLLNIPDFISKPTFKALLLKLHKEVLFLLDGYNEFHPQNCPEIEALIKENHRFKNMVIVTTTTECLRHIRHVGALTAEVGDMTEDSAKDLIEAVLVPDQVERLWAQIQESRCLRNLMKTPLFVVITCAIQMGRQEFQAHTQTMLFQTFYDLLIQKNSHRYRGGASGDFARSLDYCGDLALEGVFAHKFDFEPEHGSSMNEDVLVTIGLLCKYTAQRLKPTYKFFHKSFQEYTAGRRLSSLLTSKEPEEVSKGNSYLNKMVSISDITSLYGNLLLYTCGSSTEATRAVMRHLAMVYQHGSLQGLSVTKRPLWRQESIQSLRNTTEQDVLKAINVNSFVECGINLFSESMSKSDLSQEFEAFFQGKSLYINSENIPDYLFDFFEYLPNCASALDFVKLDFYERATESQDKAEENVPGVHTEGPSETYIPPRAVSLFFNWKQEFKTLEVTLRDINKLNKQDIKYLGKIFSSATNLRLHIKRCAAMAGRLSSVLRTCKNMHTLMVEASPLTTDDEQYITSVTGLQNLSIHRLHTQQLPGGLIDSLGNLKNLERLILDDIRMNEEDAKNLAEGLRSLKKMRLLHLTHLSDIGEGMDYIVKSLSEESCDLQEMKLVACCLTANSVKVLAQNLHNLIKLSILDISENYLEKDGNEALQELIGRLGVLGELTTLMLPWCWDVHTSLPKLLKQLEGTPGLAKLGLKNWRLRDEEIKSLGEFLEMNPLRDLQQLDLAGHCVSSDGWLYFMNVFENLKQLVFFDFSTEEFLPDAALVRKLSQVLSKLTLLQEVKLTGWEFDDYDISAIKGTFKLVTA
Chain of NACHT, LRR and PYD domains-containing protein 3 (Q96P20 whole entry, the tested form may be a part): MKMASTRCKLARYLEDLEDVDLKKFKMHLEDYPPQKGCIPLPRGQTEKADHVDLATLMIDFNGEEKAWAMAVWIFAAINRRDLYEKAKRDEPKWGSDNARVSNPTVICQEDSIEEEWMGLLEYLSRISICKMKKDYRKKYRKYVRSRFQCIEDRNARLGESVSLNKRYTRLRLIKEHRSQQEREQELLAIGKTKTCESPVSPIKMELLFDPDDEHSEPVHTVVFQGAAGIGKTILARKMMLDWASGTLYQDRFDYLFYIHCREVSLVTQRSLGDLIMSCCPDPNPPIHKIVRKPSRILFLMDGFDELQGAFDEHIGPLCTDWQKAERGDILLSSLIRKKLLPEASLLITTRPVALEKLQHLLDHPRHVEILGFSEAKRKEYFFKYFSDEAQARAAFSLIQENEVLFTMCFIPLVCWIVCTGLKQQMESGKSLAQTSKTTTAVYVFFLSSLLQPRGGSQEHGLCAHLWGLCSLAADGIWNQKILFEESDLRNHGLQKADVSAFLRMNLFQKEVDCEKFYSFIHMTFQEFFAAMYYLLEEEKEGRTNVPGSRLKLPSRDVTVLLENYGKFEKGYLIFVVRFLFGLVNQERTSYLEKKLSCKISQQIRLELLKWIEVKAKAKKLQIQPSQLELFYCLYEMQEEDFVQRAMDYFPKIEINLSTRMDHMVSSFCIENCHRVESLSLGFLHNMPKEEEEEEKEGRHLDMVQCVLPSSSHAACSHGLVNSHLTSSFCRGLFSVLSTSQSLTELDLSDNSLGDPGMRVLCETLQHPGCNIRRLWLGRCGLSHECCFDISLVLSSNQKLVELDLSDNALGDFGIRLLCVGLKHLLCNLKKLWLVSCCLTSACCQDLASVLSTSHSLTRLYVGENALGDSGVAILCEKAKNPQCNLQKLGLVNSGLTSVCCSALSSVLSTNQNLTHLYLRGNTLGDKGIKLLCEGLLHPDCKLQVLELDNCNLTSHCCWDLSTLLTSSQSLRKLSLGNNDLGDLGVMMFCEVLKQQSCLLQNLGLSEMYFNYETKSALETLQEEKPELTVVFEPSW

Take `COc1ccc(N2C(=O)/C(=C\c3ccccc3C(F)(F)F)SC2=S)cc1`: the inhibition result in [1], in [2] and in series [3] was “inactive” in each case. Besides, the inhibition entry in series [4], in [5], in series [6], in series [7], in series [8] and in [9] was “Active” in each case. Besides, the inhibition entry in series [10] and in [11] was “Active” throughout. Moreover, in [12], the half-life at 1.5 µM worked out at 2.07 h. For the same compound, in [13], the CLint scaled at 1.5 µM amounted to 11.2 mL/min/kg. The Kd in [14] came to 7.2 µM. Moreover, the outcome (in [15]; in the series with Mus musculus [16]; in the series on Mus musculus [17]; in the series with Mus musculus [19]; in the series with Mus musculus [20]; in the series with Mus musculus [21]) was Active. The Activity result in the series on Mus musculus [18] was “Dose-Dependent Effect”.
